Measured values: patent publication EP0800503B1, “NOVEL TRIENOIC RETINOID COMPOUNDS AND METHODS” (LIGAND PHARMACEUTICALS, INC., priority 1994, dated 1996)
Read-outs that look alike come from different tables or passages of the source.

How the values were obtained:
TPA induction of ODC = test: Ornithine decarboxylase (ODC) assay, inhibition of TPA induction of ODC; format: cell-based; details: concentration required to inhibit the TPA induction of ODC by 80 percent
RARβ [1] = target: T1, RARβ (Homo sapiens, UniProt P10826); test: biochemical
T1 sequence (P10826 1-455): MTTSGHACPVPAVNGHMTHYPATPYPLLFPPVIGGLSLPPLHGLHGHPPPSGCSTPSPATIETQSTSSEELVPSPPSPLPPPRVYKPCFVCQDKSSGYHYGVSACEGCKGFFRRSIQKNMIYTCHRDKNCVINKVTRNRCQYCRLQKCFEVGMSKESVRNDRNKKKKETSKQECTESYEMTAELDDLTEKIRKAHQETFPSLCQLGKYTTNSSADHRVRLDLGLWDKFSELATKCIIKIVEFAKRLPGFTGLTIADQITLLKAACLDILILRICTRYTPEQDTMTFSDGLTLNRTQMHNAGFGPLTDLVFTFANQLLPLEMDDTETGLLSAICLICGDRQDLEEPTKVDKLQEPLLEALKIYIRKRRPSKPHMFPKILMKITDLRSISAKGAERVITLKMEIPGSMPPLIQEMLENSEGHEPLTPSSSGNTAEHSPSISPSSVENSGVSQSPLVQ

RXRα [2] = target: T2, RXRα (Homo sapiens, UniProt P19793); test: Receptor binding (competition with tritiated retinoids); details: from IC50 by Cheng-Prussof equation
T2 sequence (P19793 1-462): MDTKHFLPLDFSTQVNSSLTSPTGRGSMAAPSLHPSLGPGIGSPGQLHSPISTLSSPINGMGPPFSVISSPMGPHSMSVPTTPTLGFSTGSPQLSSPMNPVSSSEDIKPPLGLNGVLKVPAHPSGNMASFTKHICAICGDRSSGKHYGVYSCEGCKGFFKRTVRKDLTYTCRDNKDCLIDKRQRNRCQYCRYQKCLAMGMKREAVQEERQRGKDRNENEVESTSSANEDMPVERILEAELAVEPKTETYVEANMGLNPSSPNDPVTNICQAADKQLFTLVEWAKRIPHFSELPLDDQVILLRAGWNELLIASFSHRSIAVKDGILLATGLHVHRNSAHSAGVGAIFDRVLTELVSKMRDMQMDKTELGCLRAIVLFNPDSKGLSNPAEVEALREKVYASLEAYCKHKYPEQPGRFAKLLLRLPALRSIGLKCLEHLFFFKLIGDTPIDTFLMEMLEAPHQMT

RXRα [3] = target: T2, RXRα; test: Co-transfection assay; format: cell-based; details: read-out: RXRα Pot
RXRγ [4] = target: T3, RXRγ (Mus musculus, UniProt P28705); test: biochemical
T3 sequence (P28705 1-463): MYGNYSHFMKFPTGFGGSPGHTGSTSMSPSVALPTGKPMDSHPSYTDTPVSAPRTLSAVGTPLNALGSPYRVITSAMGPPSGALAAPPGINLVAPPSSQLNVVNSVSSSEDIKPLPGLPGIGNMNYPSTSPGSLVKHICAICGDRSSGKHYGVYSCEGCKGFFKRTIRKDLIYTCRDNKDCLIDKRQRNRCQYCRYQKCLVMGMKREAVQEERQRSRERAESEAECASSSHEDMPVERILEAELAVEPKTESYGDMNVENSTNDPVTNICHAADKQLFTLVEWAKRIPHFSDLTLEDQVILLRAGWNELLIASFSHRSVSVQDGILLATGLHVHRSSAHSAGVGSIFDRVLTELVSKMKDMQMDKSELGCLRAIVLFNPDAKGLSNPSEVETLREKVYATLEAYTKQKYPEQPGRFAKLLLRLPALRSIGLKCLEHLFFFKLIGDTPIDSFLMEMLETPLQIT

RPMI 8226 cell line [5] = test: Viability (tetrazolium dye, MTS); format: cell-based; details: Homo sapiens, 96 hours, mitochondrial function / viability
AML-193 cell line [6] = test: Incorporation of 3H-thymidine; details: Homo sapiens, 96 h, read-out: TdR IC50 (nM)
ME 180 cell line [7] = test: Viability (tetrazolium dye, MTS); format: cell-based; details: Homo sapiens, 96 hours, mitochondrial function / viability
RARα [8] = target: T4, RARα (Homo sapiens, UniProt P10276); test: Receptor binding (competition with tritiated retinoids); details: from IC50 by Cheng-Prussof equation
T4 sequence (P10276 1-462): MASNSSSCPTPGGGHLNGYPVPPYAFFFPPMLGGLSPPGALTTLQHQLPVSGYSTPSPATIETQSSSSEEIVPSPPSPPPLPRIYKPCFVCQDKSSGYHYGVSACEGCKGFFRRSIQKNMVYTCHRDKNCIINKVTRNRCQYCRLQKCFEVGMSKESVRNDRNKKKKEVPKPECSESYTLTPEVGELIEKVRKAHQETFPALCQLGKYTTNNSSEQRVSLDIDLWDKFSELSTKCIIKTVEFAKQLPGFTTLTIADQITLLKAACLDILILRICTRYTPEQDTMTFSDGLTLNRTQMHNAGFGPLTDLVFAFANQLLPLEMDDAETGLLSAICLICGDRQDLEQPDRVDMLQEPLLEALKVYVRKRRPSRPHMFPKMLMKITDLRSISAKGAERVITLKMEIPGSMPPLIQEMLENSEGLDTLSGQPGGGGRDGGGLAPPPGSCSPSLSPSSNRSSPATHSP

RARα [9] = target: T4, RARα; test: Co-transfection assay; format: cell-based; details: read-out: RARα Pot
RARβ [10] = target: T5, RARβ (Homo sapiens, UniProt P10826); test: Co-transfection assay; format: cell-based; details: read-out: RARβ Pot
T5 sequence (P10826 1-448 isoform P10826-2): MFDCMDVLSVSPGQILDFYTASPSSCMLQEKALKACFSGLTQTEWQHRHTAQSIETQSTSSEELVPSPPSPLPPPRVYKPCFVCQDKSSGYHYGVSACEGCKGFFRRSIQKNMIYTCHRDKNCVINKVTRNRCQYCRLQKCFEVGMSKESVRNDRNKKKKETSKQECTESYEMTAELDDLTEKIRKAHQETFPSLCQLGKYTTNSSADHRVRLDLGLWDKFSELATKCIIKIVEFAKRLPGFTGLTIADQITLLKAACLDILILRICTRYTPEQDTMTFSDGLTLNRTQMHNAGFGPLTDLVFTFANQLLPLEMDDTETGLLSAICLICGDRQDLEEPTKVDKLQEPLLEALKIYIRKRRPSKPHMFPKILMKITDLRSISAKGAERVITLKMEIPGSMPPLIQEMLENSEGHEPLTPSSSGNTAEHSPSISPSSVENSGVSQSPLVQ

RXRγ [11] = target: T3, RXRγ; test: Co-transfection assay; format: cell-based; details: read-out: RXRγ Pot
RPMI 8226 cell line [12] = test: Incorporation of 3H-thymidine; format: cell-based; details: Homo sapiens, 96 hours, radiolabeled thymidine incorporation, read-out: TdR IC50
AML-193 cell line [13] = test: Viability (tetrazolium dye, MTS); format: cell-based; details: Homo sapiens, 96 hours, mitochondrial function / viability
ME 180 cell line [14] = test: Incorporation of 3H-thymidine; format: cell-based; details: Homo sapiens, 96 hours, radiolabeled thymidine incorporation, read-out: TdR IC50

Kd (RARβ [1])	Kd (RXRα [2])	EC50 (RXRα [3])	Kd (RXRγ [4])	IC50 (AML-193 cell line [6])	Kd (RARα [8])	EC50 (RARα [9]; CV-1 cells, pRShRARα, D-MTV-LUC reporter, 40 hours, potency = EC50)	EC50 (RARβ [10])	EC50 (RXRγ [11])	IC50 (RPMI 8226 cell line [12])	IC50 (ME 180 cell line [14])	EC50 (RARα [9])	SMILES	IC80 (TPA induction of ODC)	IC50 (RPMI 8226 cell line [5])	IC50 (ME 180 cell line [7])	IC50 (AML-193 cell line [13])
2 nM	270 nM	> 10000 nM	496 nM	0.1 nM	1 nM	4 nM	1 nM	> 10000 nM	0.3 nM	0.1 nM		CC(/C=C/C=C(\C)c1cc(C(C)(C)C)cc(C(C)(C)C)c1)=C\C(=O)O [Compound 9, (2E, 4E, 6E)-7-(3,5-Di-t-butylphenyl)-3-methylocta-2,4,6-trienoic acid]	0.93 nM	253 nM	1.3 nM	1000 nM
75 nM	4 nM	127 nM	9 nM	0.01 nM	59 nM		23 nM	56 nM	60 nM	62 nM	59 nM	C/C(=C/C=C/C(C)=C/C(=O)O)c1cc(C(C)(C)C)cc(C(C)(C)C)c1 [Compound 10, (2E, 4E, 6Z)-7-(3,5-di-t-butylphenyl)-3-methylocta-2,4,6-trienoic acid]	6.62 nM	570 nM	370 nM	1000 nM
				0.1 nM					0.2 nM	0.4 nM		C/C(=C\c1ccc(C(=O)O)cc1)c1ccc2c(c1)C(C)(C)CCC2(C)C [TTNPB, (E)-4-[2-(5,6,7,8-tetrahydro-5,5,8,8-tetramethyl-2-napthalenyl)-1-propenyl]benzoic acid, reference compound]	0.09 nM	10 nM	187 nM	1000 nM
